According to ChEMBL document CHEMBL3217745, “Identification of false positives in HTS hits to lead: The application of Bayesian models in HTS triage to rapidly deliver a series of selective TRPV4 antagonists” (Medchemcomm, 2013):
Each block holds one compound with its values, some of them ahead of it.

Legend:
[1] = molecular target: T1, Transient receptor potential cation channel subfamily V member 4 (Homo sapiens, UniProt Q9HBA0); test: Agonist activity at human TRPV4 expressed in CHOK1 cells assessed as changes in intracellular calcium level measured for 5 mins by FLIPR assay; type: cell-based, CHO-K1
[2] = molecular target: T2, Transient receptor potential cation channel subfamily V member 1 (Homo sapiens, UniProt Q8NER1); test: Agonist activity at human TRPV1
[3] = molecular target: T1, Transient receptor potential cation channel subfamily V member 4; test: Antagonist activity at human TRPV4 expressed in CHOK1 cells assessed as inhibition of PF-04674114/GSK1016790A-induced changes in intracellular calcium level measured for 5 mins by FLIPR assay; type: cell-based, CHO-K1
[4] = molecular target: Transient receptor potential cation channel subfamily M member 8 (Homo sapiens, UniProt Q7Z2W7); test: Antagonist activity at human TRPM8
[5] = molecular target: T2, Transient receptor potential cation channel subfamily V member 1; test: Antagonist activity at human TRPV1
[6] = molecular target: T3, Transient receptor potential cation channel subfamily A member 1 (Homo sapiens, UniProt O75762); test: Agonist activity at human TRPA1
[7] = molecular target: T4, Transient receptor potential cation channel subfamily V member 4 (Rattus norvegicus, UniProt Q9ERZ8); test: Agonist activity at rat TRPV4 expressed in CHOK1 cells assessed as changes in intracellular calcium level measured for 5 mins by FLIPR assay; type: cell-based, CHO-K1
[8] = molecular target: T3, Transient receptor potential cation channel subfamily A member 1; test: Antagonist activity at human TRPA1
[9] = molecular target: T4, Transient receptor potential cation channel subfamily V member 4; test: Antagonist activity at rat TRPV4 expressed in CHOK1 cells assessed as inhibition of PF-04674114/GSK1016790A-induced changes in intracellular calcium level measured for 5 mins by FLIPR assay; type: cell-based, CHO-K1
[10] = Clearance in human liver microsomes; type: ADME; conditions: read-out: CLH
[11] = molecular target: Voltage-gated inwardly rectifying potassium channel KCNH2 (Homo sapiens, UniProt Q12809); test: Inhibition of dofetilide binding to human ERG
[12] = molecular target: CYP3A4 (Homo sapiens, UniProt P08684); test: Inhibition of CYP3A4 (unknown origin) at 3 uM relative to control; type: ADME
[13] = Oral bioavailability in Sprague-Dawley rat at 2 mg/kg; type: ADME, organism-based; conditions: in vivo
[14] = Clearance in rat liver microsomes; type: ADME; conditions: read-out: CLH
[15] = Tmax in Sprague-Dawley rat at 2 mg/kg, po; type: ADME, organism-based; parameters: dose 2 mg/kg, route oral; conditions: in vivo
[16] = molecular target: CYP2C9 (Homo sapiens, UniProt P11712); test: Inhibition of CYP2C9 (unknown origin) at 3 uM relative to control; type: ADME
[17] = molecular target: CYP2D6 (Homo sapiens, UniProt P10635); test: Inhibition of CYP2D6 (unknown origin) at 3 uM relative to control; type: ADME
[18] = tested on: Rattus norvegicus; test: Unbound clearance in Sprague-Dawley rat at 1 mg/kg, iv; type: ADME, organism-based; parameters: dose 1 mg/kg, route intravenous; conditions: in vivo
[19] = Clearance in Sprague-Dawley rat at 1 mg/kg, iv; type: ADME, organism-based; parameters: dose 1 mg/kg, route intravenous; conditions: in vivo
[20] = Lipophilicity, log D of the compound; type: physicochemical; conditions: octanol/water
[21] = Volume of distribution at steady state in Sprague-Dawley rat at 1 mg/kg, iv; type: ADME, organism-based; parameters: dose 1 mg/kg, route intravenous; conditions: in vivo, read-out: Vdss
[22] = molecular target: T5, CYP1A2 (Homo sapiens, UniProt P05177); test: Inhibition of CYP1A2 (unknown origin) at 3 uM relative to control; type: ADME
T5 sequence (P05177 whole entry): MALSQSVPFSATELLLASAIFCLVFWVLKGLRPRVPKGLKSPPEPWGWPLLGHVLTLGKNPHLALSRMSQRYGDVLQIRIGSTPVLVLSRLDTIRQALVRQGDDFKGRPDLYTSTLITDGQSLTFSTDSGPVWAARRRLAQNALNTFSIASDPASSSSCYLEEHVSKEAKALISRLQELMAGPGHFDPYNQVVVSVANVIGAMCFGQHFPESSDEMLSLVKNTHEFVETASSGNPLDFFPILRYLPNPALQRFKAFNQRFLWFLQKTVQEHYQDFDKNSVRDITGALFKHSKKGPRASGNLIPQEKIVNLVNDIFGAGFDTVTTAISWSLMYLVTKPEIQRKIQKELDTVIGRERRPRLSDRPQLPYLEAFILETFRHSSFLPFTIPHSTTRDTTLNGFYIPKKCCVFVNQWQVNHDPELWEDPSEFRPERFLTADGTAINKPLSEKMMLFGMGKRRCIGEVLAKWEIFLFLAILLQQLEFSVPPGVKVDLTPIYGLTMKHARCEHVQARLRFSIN

[23] = Half life in Sprague-Dawley rat at 1 mg/kg, iv; type: ADME, organism-based; parameters: dose 1 mg/kg, route intravenous; conditions: in vivo
[24] = tested on: Rattus norvegicus; test: fCmax in Sprague-Dawley rat at 2 mg/kg, po; type: ADME, organism-based; parameters: dose 2 mg/kg, route oral; conditions: in vivo
[25] = molecular target: T1, Transient receptor potential cation channel subfamily V member 4; test: Antagonist activity at human TRPV4

T1 sequence (Q9HBA0 whole entry): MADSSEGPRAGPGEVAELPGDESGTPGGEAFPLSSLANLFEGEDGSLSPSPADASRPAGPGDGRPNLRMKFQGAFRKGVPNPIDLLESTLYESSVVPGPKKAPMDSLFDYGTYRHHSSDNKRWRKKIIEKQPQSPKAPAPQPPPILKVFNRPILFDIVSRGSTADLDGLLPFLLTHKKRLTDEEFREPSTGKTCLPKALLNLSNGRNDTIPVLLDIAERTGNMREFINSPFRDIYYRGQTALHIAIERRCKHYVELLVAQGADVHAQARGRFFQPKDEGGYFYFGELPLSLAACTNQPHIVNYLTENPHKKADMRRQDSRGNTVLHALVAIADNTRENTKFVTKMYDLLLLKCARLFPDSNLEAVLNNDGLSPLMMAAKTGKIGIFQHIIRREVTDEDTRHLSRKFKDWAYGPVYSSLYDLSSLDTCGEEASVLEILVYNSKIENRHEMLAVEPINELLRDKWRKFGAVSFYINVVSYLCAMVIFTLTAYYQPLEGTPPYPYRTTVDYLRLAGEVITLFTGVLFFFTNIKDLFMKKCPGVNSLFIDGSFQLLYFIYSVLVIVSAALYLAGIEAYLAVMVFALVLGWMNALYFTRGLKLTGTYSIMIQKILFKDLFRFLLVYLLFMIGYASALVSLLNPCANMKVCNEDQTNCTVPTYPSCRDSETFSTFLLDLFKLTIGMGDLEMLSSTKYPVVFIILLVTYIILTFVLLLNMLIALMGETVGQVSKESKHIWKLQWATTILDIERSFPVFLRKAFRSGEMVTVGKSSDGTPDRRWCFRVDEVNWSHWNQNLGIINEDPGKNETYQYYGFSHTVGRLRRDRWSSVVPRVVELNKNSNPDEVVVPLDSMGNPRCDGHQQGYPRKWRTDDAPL
T2 sequence (Q8NER1 whole entry): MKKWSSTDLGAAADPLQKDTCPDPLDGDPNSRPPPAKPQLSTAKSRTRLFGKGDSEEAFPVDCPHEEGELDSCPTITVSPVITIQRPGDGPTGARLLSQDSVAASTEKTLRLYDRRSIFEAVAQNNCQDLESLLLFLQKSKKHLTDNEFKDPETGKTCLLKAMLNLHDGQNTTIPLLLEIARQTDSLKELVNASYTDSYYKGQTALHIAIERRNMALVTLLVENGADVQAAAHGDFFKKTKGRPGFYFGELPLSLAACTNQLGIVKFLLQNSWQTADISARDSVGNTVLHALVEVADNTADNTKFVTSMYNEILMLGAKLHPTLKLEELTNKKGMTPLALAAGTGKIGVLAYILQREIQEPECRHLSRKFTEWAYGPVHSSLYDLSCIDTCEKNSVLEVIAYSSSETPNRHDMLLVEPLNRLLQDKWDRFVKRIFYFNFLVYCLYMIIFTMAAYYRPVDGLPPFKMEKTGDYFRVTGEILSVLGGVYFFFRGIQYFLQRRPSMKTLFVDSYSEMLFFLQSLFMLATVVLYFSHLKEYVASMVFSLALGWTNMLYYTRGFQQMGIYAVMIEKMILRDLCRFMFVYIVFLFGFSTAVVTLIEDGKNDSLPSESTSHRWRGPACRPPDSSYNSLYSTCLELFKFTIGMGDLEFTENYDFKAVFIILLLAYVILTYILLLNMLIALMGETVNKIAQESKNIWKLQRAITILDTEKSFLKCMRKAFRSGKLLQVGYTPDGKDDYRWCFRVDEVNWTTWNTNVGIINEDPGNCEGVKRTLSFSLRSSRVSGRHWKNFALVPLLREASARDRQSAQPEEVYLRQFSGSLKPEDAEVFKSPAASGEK
T4 sequence (Q9ERZ8 whole entry): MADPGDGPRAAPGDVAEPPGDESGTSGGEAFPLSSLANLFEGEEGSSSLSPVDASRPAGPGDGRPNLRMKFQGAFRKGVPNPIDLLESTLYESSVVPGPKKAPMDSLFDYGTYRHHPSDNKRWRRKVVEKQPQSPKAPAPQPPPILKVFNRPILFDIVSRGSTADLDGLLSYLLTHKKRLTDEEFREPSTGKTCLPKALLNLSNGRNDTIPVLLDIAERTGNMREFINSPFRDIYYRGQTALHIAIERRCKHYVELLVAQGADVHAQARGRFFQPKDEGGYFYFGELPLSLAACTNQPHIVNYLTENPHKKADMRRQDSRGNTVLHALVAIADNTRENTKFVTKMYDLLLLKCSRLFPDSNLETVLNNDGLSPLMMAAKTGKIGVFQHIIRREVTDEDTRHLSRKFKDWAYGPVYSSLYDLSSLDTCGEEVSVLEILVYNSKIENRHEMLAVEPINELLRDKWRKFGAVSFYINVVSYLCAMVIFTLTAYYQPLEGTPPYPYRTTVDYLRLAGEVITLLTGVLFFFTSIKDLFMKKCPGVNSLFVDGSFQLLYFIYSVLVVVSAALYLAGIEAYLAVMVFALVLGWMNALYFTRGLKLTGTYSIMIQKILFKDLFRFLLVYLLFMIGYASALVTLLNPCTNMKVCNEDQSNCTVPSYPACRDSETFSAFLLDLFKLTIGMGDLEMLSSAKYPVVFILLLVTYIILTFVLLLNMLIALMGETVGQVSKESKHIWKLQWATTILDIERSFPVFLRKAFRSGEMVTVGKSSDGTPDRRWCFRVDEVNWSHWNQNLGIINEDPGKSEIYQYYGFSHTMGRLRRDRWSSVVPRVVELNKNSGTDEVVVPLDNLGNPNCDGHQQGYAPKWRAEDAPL
T3 sequence (O75762 whole entry): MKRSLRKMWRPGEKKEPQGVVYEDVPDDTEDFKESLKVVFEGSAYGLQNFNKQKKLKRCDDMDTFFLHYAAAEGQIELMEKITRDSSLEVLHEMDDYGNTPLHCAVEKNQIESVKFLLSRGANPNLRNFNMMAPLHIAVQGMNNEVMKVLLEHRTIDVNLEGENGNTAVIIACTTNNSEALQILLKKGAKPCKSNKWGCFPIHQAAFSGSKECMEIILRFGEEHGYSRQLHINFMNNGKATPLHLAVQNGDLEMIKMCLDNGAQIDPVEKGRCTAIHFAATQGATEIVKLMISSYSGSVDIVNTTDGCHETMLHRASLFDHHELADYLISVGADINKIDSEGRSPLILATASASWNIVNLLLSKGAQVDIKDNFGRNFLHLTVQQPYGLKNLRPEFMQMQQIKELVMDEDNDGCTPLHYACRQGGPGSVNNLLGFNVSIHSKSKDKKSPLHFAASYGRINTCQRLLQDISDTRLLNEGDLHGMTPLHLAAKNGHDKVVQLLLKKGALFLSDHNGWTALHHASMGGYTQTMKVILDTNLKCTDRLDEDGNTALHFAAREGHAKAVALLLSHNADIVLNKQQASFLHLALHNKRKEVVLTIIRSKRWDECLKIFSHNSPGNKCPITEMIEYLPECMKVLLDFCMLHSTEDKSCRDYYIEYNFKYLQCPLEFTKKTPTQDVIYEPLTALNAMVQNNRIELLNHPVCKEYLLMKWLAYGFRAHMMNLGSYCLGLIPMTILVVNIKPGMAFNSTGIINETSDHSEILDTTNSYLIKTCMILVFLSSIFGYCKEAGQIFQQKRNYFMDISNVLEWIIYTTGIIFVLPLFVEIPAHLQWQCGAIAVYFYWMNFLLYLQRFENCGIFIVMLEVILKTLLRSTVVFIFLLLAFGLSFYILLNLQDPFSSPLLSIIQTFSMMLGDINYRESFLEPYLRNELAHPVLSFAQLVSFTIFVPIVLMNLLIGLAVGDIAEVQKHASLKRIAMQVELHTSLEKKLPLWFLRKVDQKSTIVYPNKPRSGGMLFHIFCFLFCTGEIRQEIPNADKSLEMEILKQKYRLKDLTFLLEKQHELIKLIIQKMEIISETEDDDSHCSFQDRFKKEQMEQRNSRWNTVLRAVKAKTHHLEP
Chain of Transient receptor potential cation channel subfamily M member 8 (Q7Z2W7 whole entry): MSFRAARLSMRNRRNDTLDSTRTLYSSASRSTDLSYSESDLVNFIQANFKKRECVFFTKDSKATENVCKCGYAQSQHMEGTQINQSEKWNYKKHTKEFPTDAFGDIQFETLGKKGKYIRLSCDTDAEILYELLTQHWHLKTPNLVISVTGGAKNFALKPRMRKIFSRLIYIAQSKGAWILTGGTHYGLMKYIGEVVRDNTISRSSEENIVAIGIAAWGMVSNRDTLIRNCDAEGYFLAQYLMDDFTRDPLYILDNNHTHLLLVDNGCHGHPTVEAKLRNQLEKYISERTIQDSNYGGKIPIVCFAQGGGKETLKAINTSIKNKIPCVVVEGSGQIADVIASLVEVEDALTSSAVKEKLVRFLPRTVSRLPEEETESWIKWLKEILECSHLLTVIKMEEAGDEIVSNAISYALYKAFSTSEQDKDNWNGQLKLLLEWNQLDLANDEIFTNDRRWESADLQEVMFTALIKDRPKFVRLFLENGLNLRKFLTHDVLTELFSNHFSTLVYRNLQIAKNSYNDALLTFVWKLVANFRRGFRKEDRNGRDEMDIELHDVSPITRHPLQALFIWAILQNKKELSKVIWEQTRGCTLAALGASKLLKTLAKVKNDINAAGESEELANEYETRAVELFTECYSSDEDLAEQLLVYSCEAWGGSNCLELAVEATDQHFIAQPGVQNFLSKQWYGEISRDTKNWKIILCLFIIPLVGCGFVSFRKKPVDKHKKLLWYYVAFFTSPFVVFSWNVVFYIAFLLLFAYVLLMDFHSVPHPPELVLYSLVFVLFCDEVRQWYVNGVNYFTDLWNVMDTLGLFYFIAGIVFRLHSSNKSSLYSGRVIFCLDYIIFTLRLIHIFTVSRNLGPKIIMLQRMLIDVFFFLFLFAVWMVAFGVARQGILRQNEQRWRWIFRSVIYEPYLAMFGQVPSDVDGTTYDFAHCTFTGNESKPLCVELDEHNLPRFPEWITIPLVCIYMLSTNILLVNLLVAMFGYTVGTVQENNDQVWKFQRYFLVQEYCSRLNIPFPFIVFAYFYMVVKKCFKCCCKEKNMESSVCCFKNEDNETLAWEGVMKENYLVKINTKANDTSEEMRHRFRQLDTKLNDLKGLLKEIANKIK

EC50 [1]: > 1000 nM
EC50 [2]: > 20000 nM
IC50 [3]: 49.7 nM
IC50 [4]: 4800 nM
IC50 [5]: > 3900 nM
EC50 [6]: > 12500 nM
EC50 [7]: > 1000 nM
IC50 [8]: > 12500 nM
IC50 [9]: 1150 nM
SMILES: N#Cc1ccc(OCC2(O)CCN(S(=O)(=O)c3ccc(Cl)cc3Cl)CC2)cc1

IC50 [25]: 2200 nM
SMILES: O=S(=O)(c1ccc(Cl)cc1Cl)N1CCC(O)(CSc2ccncc2)CC1

IC50 [3]: 12.9 nM
SMILES: N#Cc1ccc(OCC2(O)CCN(S(=O)(=O)c3ccc(Cl)cc3Cl)CC2)cc1F

More lines, now with the values behind:

SMILES: N#Cc1ccc(S(=O)(=O)N2CCC(O)(COc3ccc(C#N)c(F)c3)CC2)c(Cl)c1
IC50 [3]: 49.1 nM

SMILES: N#Cc1ccc(S(=O)(=O)N2CCC(O)(COc3ccc(C#N)c(F)c3)CC2)c(C#N)c1
IC50 [3]: 50.5 nM

SMILES: N#Cc1ccc(OCC2(O)CN(S(=O)(=O)c3ccc(Cl)cc3C#N)C2)cc1F
IC50 [3]: 3.4 nM

SMILES: N#Cc1ccc(OCC2(O)CN(S(=O)(=O)c3ccc(Cl)cc3Cl)C2)cc1F
microsomal CLint [10]: < 8.1 µL/min/mg
EC50 [1]: > 1000 nM
IC50 [11]: 9670 nM
inhibition at 3 µM [12]: < 20%
EC50 [2]: > 20000 nM
bioavailability [13]: 73%
IC50 [3]: 3.8 nM
microsomal CLint [14]: 87 µL/min/mg
IC50 [4]: 9580 nM
IC50 [5]: > 16000 nM
Tmax [15]: 0.75 h
inhibition at 3 µM [16]: < 20%
EC50 [6]: > 12500 nM
EC50 [7]: > 1000 nM
inhibition at 3 µM [17]: < 20%
IC50 [8]: > 12500 nM
CL free [18]: 756 mL/min/kg
clearance [19]: 23.5 mL/min/kg
logD [20]: 3.2
Vd [21]: 4.3 L/kg
inhibition at 3 µM [22]: < 20%
half-life [23]: 2.2 h
fCmax [24]: 16 nM
IC50 [9]: 34.1 nM

SMILES: N#Cc1ccc(OCC2(O)CN(S(=O)(=O)c3ccc(Cl)cc3C#N)C2)cc1Cl
IC50 [3]: 3.6 nM

SMILES: N#Cc1ccc(S(=O)(=O)N2CC(O)(COc3ccc(C#N)c(Cl)c3)C2)c(Cl)c1
IC50 [3]: 4 nM
